Our source for the MIC and inhibition values is ChEMBL document CHEMBL4219180, “Dibenzofuran, dibenzothiophene and N-methyl carbazole tethered 2-aminothiazoles and their cinnamamides as potent inhibitors of Mycobacterium tuberculosis” (Bioorg Med Chem Lett, 2018).

Molecules are shown by their SMILES. Values after ≈ are worked out from the molar mass of the structure shown.

Series [1] has as its system Mycobacterium tuberculosis. Kind of series: Antimycobacterial activity against Mycobacterium tuberculosis. The format is functional.
Series [2] concerns Mycobacterium tuberculosis. Kind of series: Antimycobacterial activity against Mycobacterium tuberculosis H37Rv ATCC 27294 after 28 days by agar dilution method. It is filed as functional. The settings on record: H37Rv ATCC 27294, 672 h. On the technique in general: In agar dilution the substance is mixed into plates at graded concentrations.
Series [3] is described as follows: Growth inhibition of HEK293T cells at 50 ug/ml after 72 hrs by MTT assay. The format is cell-based, HEK-293T. The settings on record: human, read-out: GI. In general terms: Tetrazolium dyes change colour on reduction, which living cells bring about.

For orientation: MIC means the lowest concentration that inhibits growth of the organism. Read a low MIC as greater potency. The compound `CC(=O)C1=C(O)C=C2Oc3c(C(C)=O)c(O)c(C)c(O)c3C2(C)C1=O` (stereo not given) had an MIC in series [1] of 12.5 µg/mL (≈ 36.3 µM).

Compound `O=C(/C=C/c1ccc(Br)cc1)Nc1nc(-c2ccc3sc4ccccc4c3c2)cs1` registered a minimum inhibitory concentration (MIC) in series [2] of 6.25 µg/mL (≈ 12.7 µM). Further, the inhibition at 72 h, 50 ug/ml in series [3] is 28.3%. Consider `CC(C)c1ccc(/C=C/C(=O)Nc2nc(-c3ccc4c(c3)c3ccccc3n4C)cs2)cc1`, for which inhibition of growth in series [2] (MIC) required 50 µg/mL (≈ 111 µM). Also, in series [3], the inhibition at 72 h, 50 ug/ml came out at 62%.

In series [2], `O=C(/C=C/c1ccc(F)cc1)Nc1nc(-c2ccc3sc4ccccc4c3c2)cs1` gave an MIC of 0.78 µg/mL (≈ 1.81 µM). In addition, in series [3], the inhibition at 72 h, 50 ug/ml came out at 57.2%. For `CC(C)c1ccc(/C=C/C(=O)Nc2nc(-c3ccc4oc5ccccc5c4c3)cs2)cc1` the same measures were 6.25 µg/mL (≈ 14.3 µM) and 42.2%. With `CC(C)c1ccc(/C=C/C(=O)Nc2nc(-c3ccc4sc5ccccc5c4c3)cs2)cc1`, the minimal inhibitory concentration (MIC) in series [2] is 0.78 µg/mL (≈ 1.72 µM). The inhibition at 72 h, 50 ug/ml in series [3] came to 43.1%.

As to `Cc1ccc(/C=C/C(=O)Nc2nc(-c3ccc4c(c3)c3ccccc3n4C)cs2)cc1`, the MIC in series [2] stood at 25 µg/mL (≈ 59 µM). Also, in series [3], the inhibition at 72 h, 50 ug/ml worked out at 19.4%. `Cn1c2ccccc2c2cc(-c3csc(NC(=O)/C=C/c4ccc(F)cc4)n3)ccc21`: the MIC in series [2] was found to be 50 µg/mL (≈ 117 µM). In series [3], the inhibition at 72 h, 50 ug/ml amounted to 23.8%. `Cc1ccc(/C=C/C(=O)Nc2nc(-c3ccc4oc5ccccc5c4c3)cs2)cc1` had an MIC in series [2] of 50 µg/mL (≈ 122 µM). The inhibition at 72 h, 50 ug/ml in series [3] was 51.3%.

Regarding `Cc1ccc(/C=C/C(=O)Nc2nc(-c3ccc4sc5ccccc5c4c3)cs2)cc1`, the minimum inhibitory concentration (MIC) in series [2] is 50 µg/mL (≈ 117 µM). In addition, the inhibition at 72 h, 50 ug/ml in series [3] is 48%. Taken in the same sequence, the figures for `Cn1c2ccccc2c2cc(-c3csc(NC(=O)/C=C/c4ccccc4)n3)ccc21` were 50 µg/mL (≈ 122 µM) and 14.3%. In series [2], `Cn1c2ccccc2c2cc(-c3csc(N)n3)ccc21` displayed a minimal inhibitory concentration (MIC) of 12.5 µg/mL (≈ 44.7 µM). Moreover, in series [3], the inhibition at 72 h, 50 ug/ml stood at 38.1%. For the compound `Nc1nc(-c2ccc3sc4ccccc4c3c2)cs1`, the MIC in series [2] was determined as 1.56 µg/mL (≈ 5.52 µM). The inhibition at 72 h, 50 ug/ml in series [3] amounted to 56.7%. Taken in the same sequence, the figures for `O=C(/C=C/c1ccc(F)cc1)Nc1nc(-c2ccc3oc4ccccc4c3c2)cs1` were 50 µg/mL (≈ 121 µM) and 36.8%. Take `Cn1c2ccccc2c2cc(-c3csc(NC(=O)/C=C/c4ccc(Br)cc4)n3)ccc21`: 0.78 µg/mL (≈ 1.6 µM) was the least that counted as inhibitory in series [2] (MIC). Also, the inhibition at 72 h, 50 ug/ml in series [3] was found to be 12.1%. With `O=C(/C=C/c1ccccc1)Nc1nc(-c2ccc3oc4ccccc4c3c2)cs1`, the MIC in series [2] turned out to be 50 µg/mL (≈ 126 µM). Besides, the inhibition at 72 h, 50 ug/ml in series [3] amounted to 52.6%. In series [2], `O=C(/C=C/c1ccccc1)Nc1nc(-c2ccc3sc4ccccc4c3c2)cs1` showed an MIC of 50 µg/mL (≈ 121 µM). In addition, the inhibition at 72 h, 50 ug/ml in series [3] is 68.6%. In turn, `Nc1nc(-c2ccc3oc4ccccc4c3c2)cs1` yielded an MIC in series [2] of 1.56 µg/mL (≈ 5.86 µM). In addition, in series [3], the inhibition at 72 h, 50 ug/ml amounted to 48.1%. `O=C(/C=C/c1ccc(Br)cc1)Nc1nc(-c2ccc3oc4ccccc4c3c2)cs1` returned an MIC in series [2] of 12.5 µg/mL (≈ 26.3 µM). Moreover, in series [3], the inhibition at 72 h, 50 ug/ml is 68.6%. The compound `CC[C@@H](CO)NCCN[C@@H](CC)CO` [ETHAMBUTOL] came in with a minimum inhibitory concentration (MIC) in series [2] of 3.13 µg/mL (≈ 15.3 µM).

As to `NNC(=O)c1ccncc1` [ISONIAZID], in series [2], the lowest concentration to inhibit growth (MIC) was 0.1 µg/mL (≈ 0.729 µM).

In turn, `NC(=O)c1cnccn1` [PYRAZINAMIDE] yielded a minimum inhibitory concentration (MIC) in series [2] of 50 µg/mL (≈ 406 µM).
